How the values were obtained:
Type in all cases: cell-based
[1] = system: HCT-116 colorectal cancer cell line; assay: CCK-8 proliferation inhibition; conditions: Homo sapiens, HCT-116, 72 h, concentration of 30 μM; 72 hours; CCK-8; read-out: HCT116 inhibition rate/%
Method in brief: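 Proliferation over 72 hours of compound treatment was measured with CCK-8 against a 1‰ DMSO control.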

[2] = system: methicillin-sensitive Staphylococcus epidermidis (MSSE); assay: MIC, two-fold agar dilution (CLSI), clinical isolates
Method in brief: (§1)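 Samples are serially diluted two-fold in agar following CLSI guidance. Plates are then inoculated with the tested strains. The lowest inhibiting concentration is recorded as MIC.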

[3] = system: Enterococcus faecalis (EFA); assay: as above
Method in brief: as §1

[4] = system: methicillin-resistant Staphylococcus epidermidis (MRSE); assay: as above
Method in brief: as §1

[5] = system: Moraxella catarrhalis (BCA); assay: as above
Method in brief: as §1

[6] = system: Enterococcus faecium (EFM); assay: as above
Method in brief: as §1

[7] = system: methicillin-resistant Staphylococcus aureus (MRSA); assay: as above
Method in brief: as §1

[8] = system: methicillin-sensitive Staphylococcus aureus (MSSA); assay: as above
Method in brief: as §1

[9] = system: Escherichia coli (including ESBLs, non-ESBLs); assay: as above
Method in brief: as §1

[10] = system: Streptococcus pneoumoniae (SPN); assay: as above
Method in brief: as §1

CCCC[C@H](CC(=O)NO)C(=O)N1CC2(CC2)C[C@H]1C(=O)Nc1ccno1 [Example 54, (S)-5-((R)-2-(2-(hydroxyamino)-2-oxoethyl)hexanoyl)-N-(isoxazol-5-yl)-5-spiro[2.4]heptane-6-carboxamide] showed an inhibition at 30 µM [1] of 8%, an Anti-bacterial activity (MIC), strain MSSE 15-3 ([2]; clinical isolate MSSE 15-3) greater than 32 µg/mL and an Anti-bacterial activity (MIC), strain MSSE 15-4 ([2]; clinical isolate MSSE 15-4) greater than 32 µg/mL. It also gave an Anti-bacterial activity (MIC), strain MSSE 15-5 ([2]; clinical isolate MSSE 15-5) greater than 32 µg/mL, an Anti-bacterial activity (MIC), strain MSSE 15-6 ([2]; clinical isolate MSSE 15-6) greater than 32 µg/mL and an Anti-bacterial activity (MIC), strain EFA 15-1 ([3]; clinical isolate EFA 15-1) greater than 32 µg/mL. For the same compound, the Anti-bacterial activity (MIC), strain EFA 15-2 ([3]; clinical isolate EFA 15-2) was greater than 32 µg/mL, the Anti-bacterial activity (MIC), strain EFA 15-3 ([3]; clinical isolate EFA 15-3) was greater than 32 µg/mL and the Anti-bacterial activity (MIC), strain EFA 15-4 ([3]; clinical isolate EFA 15-4) was greater than 32 µg/mL. It also gave an Anti-bacterial activity (MIC), strain EFA 15-5 ([3]; clinical isolate EFA 15-5) greater than 32 µg/mL, an Anti-bacterial activity (MIC), strain EFA 15-6 ([3]; clinical isolate EFA 15-6) greater than 32 µg/mL and an Anti-bacterial activity (MIC), strain EFA 15-9 ([3]; clinical isolate EFA 15-9) of 32 µg/mL. For the same compound, the Anti-bacterial activity (MIC), strain MRSE 15-1 ([4]; clinical isolate MRSE 15-1) was greater than 32 µg/mL, the Anti-bacterial activity (MIC), strain MRSE 15-2 ([4]; clinical isolate MRSE 15-2) was greater than 32 µg/mL and the Anti-bacterial activity (MIC), strain MRSE 15-3 ([4]; clinical isolate MRSE 15-3) was greater than 32 µg/mL. For the same compound, the Anti-bacterial activity (MIC), strain MRSE 15-7 ([4]; clinical isolate MRSE 15-7) was greater than 32 µg/mL, the Anti-bacterial activity (MIC), strain BCA 14-1 ([5]; clinical isolate BCA 14-1) was greater than 32 µg/mL and the Anti-bacterial activity (MIC), strain BCA 14-4 ([5]; clinical isolate BCA 14-4) was greater than 32 µg/mL. It also gave an Anti-bacterial activity (MIC), strain BCA 14-5 ([5]; clinical isolate BCA 14-5) of 32 µg/mL, an Anti-bacterial activity (MIC), strain BCA 14-6 ([5]; clinical isolate BCA 14-6) greater than 32 µg/mL and an Anti-bacterial activity (MIC), strain BCA 14-7 ([5]; clinical isolate BCA 14-7) greater than 32 µg/mL. It also gave an Anti-bacterial activity (MIC), strain BCA 14-8 ([5]; clinical isolate BCA 14-8) greater than 32 µg/mL, an Anti-bacterial activity (MIC), strain BCA 14-10 ([5]; clinical isolate BCA 14-10) greater than 32 µg/mL and an Anti-bacterial activity (MIC), strain EFM 15-1 ([6]; clinical isolate EFM 15-1) greater than 32 µg/mL. For the same compound, the Anti-bacterial activity (MIC), strain EFM 15-2 ([6]; clinical isolate EFM 15-2) was greater than 32 µg/mL, the Anti-bacterial activity (MIC), strain EFM 15-3 ([6]; clinical isolate EFM 15-3) was greater than 32 µg/mL and the Anti-bacterial activity (MIC), strain EFM 15-4 ([6]; clinical isolate EFM 15-4) was greater than 32 µg/mL. For the same compound, the Anti-bacterial activity (MIC), strain EFM 15-5 ([6]; clinical isolate EFM 15-5) was 2 µg/mL, the Anti-bacterial activity (MIC), strain EFM 15-6 ([6]; clinical isolate EFM 15-6) was 8 µg/mL and the Anti-bacterial activity (MIC), strain MRSA 15-1 ([7]; clinical isolate MRSA 15-1) was greater than 32 µg/mL. It also gave an Anti-bacterial activity (MIC), strain MRSA 15-2 ([7]; clinical isolate MRSA 15-2) greater than 32 µg/mL, an Anti-bacterial activity (MIC), strain MRSA 15-3 ([7]; clinical isolate MRSA 15-3) greater than 32 µg/mL and an Anti-bacterial activity (MIC), strain MRSA 15-4 ([7]; clinical isolate MRSA 15-4) greater than 32 µg/mL. It also gave an Anti-bacterial activity (MIC), strain MSSA 15-3 ([8]; clinical isolate MSSA 15-3) greater than 32 µg/mL, an Anti-bacterial activity (MIC), strain MSSA 15-4 ([8]; clinical isolate MSSA 15-4) greater than 32 µg/mL and an Anti-bacterial activity (MIC), strain MSSA 15-5 ([8]; clinical isolate MSSA 15-5) greater than 32 µg/mL. The Anti-bacterial activity (MIC), strain MSSA 15-6 ([8]; clinical isolate MSSA 15-6) was greater than 32 µg/mL, the Anti-bacterial activity (MIC), strain ECO+ 15-1 ([9]; clinical isolate ECO+ 15-1) was greater than 32 µg/mL and the Anti-bacterial activity (MIC), strain ECO+ 15-2 ([9]; clinical isolate ECO+ 15-2) was greater than 32 µg/mL. The Anti-bacterial activity (MIC), strain ECO+ 15-3 ([9]; clinical isolate ECO+ 15-3) was greater than 32 µg/mL, the Anti-bacterial activity (MIC), strain ECO+ 15-4 ([9]; clinical isolate ECO+ 15-4) was greater than 32 µg/mL and the Anti-bacterial activity (MIC), strain ECO− 15-1 ([9]; clinical isolate ECO− 15-1) was greater than 32 µg/mL. The Anti-bacterial activity (MIC), strain ECO− 15-2 ([9]; clinical isolate ECO− 15-2) was greater than 32 µg/mL, the Anti-bacterial activity (MIC), strain ECO− 15-3 ([9]; clinical isolate ECO− 15-3) was greater than 32 µg/mL and the Anti-bacterial activity (MIC), strain ECO− 15-4 ([9]; clinical isolate ECO− 15-4) was greater than 32 µg/mL. For the same compound, the Anti-bacterial activity (MIC), strain SPN 16-2 ([10]; clinical isolate SPN 16-2) was 4 µg/mL and the Anti-bacterial activity (MIC), strain SPN 16-4 ([10]; clinical isolate SPN 16-4) was 4 µg/mL.
